Measurements published in ChEMBL document CHEMBL1143708, “5-alkynyl analogs of arabinouridine and 2'-deoxyuridine: cytostatic activity against herpes simplex virus and varicella-zoster thymidine kinase gene-transfected cells” (J Med Chem, 2007).
Converted amounts (≈) assume the structure as drawn. The source made the active and inactive calls. The rule behind the calls is not given here.

Key:
[1] = tested on: FM3A; assay: Inhibition of proliferation of thymidine kinase deficient mouse FM3A cells; assay type: functional, cell-based
[2] = tested on: OST; assay: Inhibition of proliferation of thymidine kinase deficient OST cells; assay type: functional, cell-based; conditions: Homo sapiens
[3] = tested on: Human alphaherpesvirus 1; assay: Antiviral activity against thymidine kinase-deficient HSV1 B2006 in E6SM cells assessed as reduction of virus-induced cytopathogenicity; assay type: functional, organism-based; conditions: Human alphaherpesvirus 1, B2006, E6SM
[4] = tested on: Human alphaherpesvirus 3; assay: Antiviral activity against TK+ VZV OKA in HEL cells assessed as reduction of virus plaque formation; assay type: functional, organism-based; conditions: Human alphaherpesvirus 3, OKA
[5] = tested on: Human alphaherpesvirus 3; assay: Antiviral activity against TK+ VZV YS in HEL cells assessed as reduction of virus plaque formation; assay type: functional, organism-based; conditions: Human alphaherpesvirus 3, YS
[6] = tested on: FM3A; assay: Inhibition of proliferation of thymidine kinase deficient mouse FM3A cells expressing HSV1 thymidine kinase; assay type: functional, cell-based
[7] = tested on: Human alphaherpesvirus 2; assay: Antiviral activity against HSV2 G in E6SM cells assessed as reduction of virus-induced cytopathogenicity; assay type: functional, organism-based; conditions: Human alphaherpesvirus 2, G
[8] = tested on: Human betaherpesvirus 5; assay: Antiviral activity against HCMV AD169 in HEL cells assessed as reduction of virus plaque formation; assay type: functional, organism-based; conditions: Human betaherpesvirus 5, AD169, HEL
[9] = Cytotoxicity against HEL cells assessed as alteration in cell morphology; assay type: cell-based; conditions: human
[10] = Cytotoxicity against E6SM cells assessed as alteration in cell morphology; assay type: cell-based; conditions: human
[11] = Cytotoxicity against HEL cells; assay type: cell-based; conditions: human
[12] = tested on: Sindbis virus; assay: Antiviral activity against Sindbis virus in vero cells assessed as reduction of virus-induced cytopathicity at 40 to >400 ug/mL; assay type: functional, organism-based
[13] = tested on: Human alphaherpesvirus 3; assay: Antiviral activity against thymidine kinase deficient VZV YS in HEL cells assessed as reduction of virus plaque formation; assay type: functional, organism-based; conditions: Human alphaherpesvirus 3, YS
[14] = tested on: FM3A; assay: Inhibition of proliferation of thymidine kinase deficient mouse FM3A cells expressing HSV2 thymidine kinase; assay type: functional, cell-based
[15] = tested on: Human alphaherpesvirus 1; assay: Antiviral activity against HSV1 KOS in E6SM cells assessed as reduction of virus-induced cytopathogenicity; assay type: functional, organism-based; conditions: Human alphaherpesvirus 1, KOS
[16] = tested on: Respiratory syncytial virus; assay: Antiviral activity against Respiratory syncytial virus in HeLa cells at 40 to >400 ug/mL; assay type: functional, organism-based
[17] = Inhibition of proliferation of VZV thymidine kinase expressing OSTtk-/VZVtk+ -a cells; assay type: functional; conditions: Homo sapiens
[18] = Inhibition of proliferation of mouse FM3A/O cells; assay type: functional, cell-based
[19] = tested on: Human betaherpesvirus 5; assay: Antiviral activity against HCMV Davis in HEL cells assessed as reduction of virus plaque formation; assay type: functional, organism-based; conditions: Human betaherpesvirus 5, Davis
[20] = Inhibition of proliferation of VZV thymidine kinase expressing OSTtk-/VZVtk+ -b cells; assay type: functional; conditions: Homo sapiens
[21] = tested on: Human respirovirus 3; assay: Antiviral activity against Parainfluenza 3 virus in vero cells assessed as reduction of virus-induced cytopathicity at 20 to >400 ug/mL; assay type: functional, organism-based
[22] = tested on: Vesicular stomatitis virus; assay: Antiviral activity against VSV in HeLa cells at 40 to >400 ug/mL; assay type: functional, organism-based
[23] = tested on: Human alphaherpesvirus 1; assay: Antiviral activity against thymidine kinase deficient HSV1 VMW1837 in E6SM cells assessed as reduction of virus-induced cytopathogenicity; assay type: functional, organism-based; conditions: Human alphaherpesvirus 1, VMW1837, E6SM
[24] = tested on: Human alphaherpesvirus 3; assay: Antiviral activity against thymidine kinase deficient VZV 07/1 in HEL cells assessed as reduction of virus plaque formation; assay type: functional, organism-based; conditions: Human alphaherpesvirus 3, 07/1, HEL
[25] = tested on: Coxsackievirus B4; assay: Antiviral activity against Coxsackie virus B4 in HeLa cells at 40 to >400 ug/mL; assay type: functional, organism-based
[26] = tested on: Punta Toro virus; assay: Antiviral activity against Punta Toro virus in vero cells assessed as reduction of virus-induced cytopathicity at 20 to >400 ug/mL; assay type: functional, organism-based
[27] = tested on: Mammalian orthoreovirus 1; assay: Antiviral activity against Reovirus1 in vero cells assessed as reduction of virus-induced cytopathicity at 40 to >400 ug/mL; assay type: functional, organism-based
[28] = tested on: Vesicular stomatitis virus; assay: Antiviral activity against VSV in HeLa cells; assay type: functional, organism-based
[29] = tested on: Punta Toro virus; assay: Antiviral activity against Punta Toro virus in vero cells; assay type: functional, organism-based
[30] = tested on: Respiratory syncytial virus; assay: Antiviral activity against Respiratory syncytial virus in HeLa cells; assay type: functional, organism-based; conditions: human respiratory syncytial virus
[31] = tested on: Coxsackievirus B4; assay: Antiviral activity against Coxsackie virus B4 in HeLa cells; assay type: functional, organism-based; conditions: Enterovirus B
[32] = tested on: Mammalian orthoreovirus 1; assay: Antiviral activity against Reovirus1 in vero cells; assay type: functional, organism-based; conditions: Mammalian orthoreovirus 1, Vero
[33] = tested on: Human alphaherpesvirus 3; assay: Antiviral activity against thymidine kinase deficient VZV YS/R in HEL cells assessed as reduction of virus plaque formation; assay type: functional, organism-based; conditions: Human alphaherpesvirus 3, YS/R

Structure (SMILES)	IC50 [1] [µM]	IC50 [2] [µM]	EC50 [3] [µg/mL]	EC50 [4] [µM]	EC50 [5] [µM]	IC50 [6] [µM]	EC50 [7] [µg/mL]	EC50 [8] [µM]	MCC [9] [µM]	MCC [10] [µg/mL]	CC50 [11] [µM]	Activity [12]	IC50 [14] [µM]	EC50 [15] [µg/mL]	Activity [16]	IC50 [17] [µM]	IC50 [18] [µM]	EC50 [19] [µM]	IC50 [20] [µM]	EC50 [23] [µg/mL]	also measured
C#Cc1cn([C@H]2C[C@H](O)[C@@H](CO)O2)c(=O)[nH]c1=O	≥ 250	23	0.7 (≈ 2.78 µM)	0.16	0.11	0.13	2 (≈ 7.93 µM)	1.2	> 200	> 400	2.5	inactive	0.39	0.7 (≈ 2.78 µM)	inactive	0.083	0.18	0.85	0.16	4 (≈ 15.9 µM)	EC50 [13]: 0.75 µM; Activity [21]: inactive; Activity [22]: inactive; EC50 [24]: 0.81 µM; Activity [25]: inactive; Activity [26]: inactive; Activity [27]: inactive
O=c1[nH]c(=O)n([C@@H]2O[C@H](CO)[C@@H](O)C2O)cc1/C=C/Br (single isomer, unassigned) [SORIVUDINE]	–	≥ 250	–	–	–	–	–	–	–	–	–	–	–	–	–	0.15	–	–	0.2	–	–
Nc1nc2c(ncn2COC(CO)CO)c(=O)[nH]1 [GANCICLOVIR]	–	–	0.7 (≈ 2.74 µM)	–	–	–	0.007 (≈ 0.0274 µM)	6.3	> 200	> 100	–	–	–	0.002 (≈ 0.00784 µM)	–	–	–	–	–	0.02 (≈ 0.0784 µM)	–
C[Si](C)(C)C#Cc1cn([C@H]2C[C@H](O)[C@@H](CO)O2)c(=O)[nH]c1=O	≥ 250	23	4 (≈ 12.3 µM)	0.26	0.15	0.16	7 (≈ 21.6 µM)	1.2	200	> 400	0.18	inactive	0.48	2 (≈ 6.17 µM)	inactive	0.041	0.23	0.75	0.2	7 (≈ 21.6 µM)	EC50 [13]: 0.9 µM; Activity [21]: inactive; Activity [22]: inactive; EC50 [24]: 0.69 µM; Activity [25]: inactive; Activity [26]: inactive; Activity [27]: inactive
Nc1nc2c(ncn2COCCO)c(=O)[nH]1 [ACYCLOVIR]	–	–	40 (≈ 178 µM)	–	–	–	0.07 (≈ 0.311 µM)	–	–	> 400	–	–	–	0.02 (≈ 0.0888 µM)	–	–	–	–	–	7 (≈ 31.1 µM)	–
CC(=O)OC[C@H]1O[C@@H](n2cc(C#CI)c(=O)[nH]c2=O)[C@@H](OC(C)=O)[C@@H]1OC(C)=O	20	5.4	> 10	8.5	3.1	5.4	7 (≈ 13.5 µM)	> 20	50	40	20	inactive	0.96	20 (≈ 38.4 µM)	inactive	3.6	18	> 20	3.9	> 10	EC50 [13]: > 20 µM; Activity [21]: inactive; Activity [22]: inactive; EC50 [24]: > 20 µM; Activity [25]: inactive; Activity [26]: inactive; Activity [27]: inactive
NC(=O)c1ncn([C@@H]2O[C@H](CO)[C@@H](O)[C@H]2O)n1 [RIBAVIRIN]	–	–	20 (≈ 81.9 µM)	–	–	–	150 (≈ 614 µM)	–	–	400	–	–	–	70 (≈ 287 µM)	–	–	–	–	–	70 (≈ 287 µM)	IC50 [28]: 20 µg/mL (≈ 81.9 µM); IC50 [29]: 20 µg/mL (≈ 81.9 µM); IC50 [30]: 2 µg/mL (≈ 8.19 µM); IC50 [31]: 20 µg/mL (≈ 81.9 µM); IC50 [32]: 0.7 µg/mL (≈ 2.87 µM)
O=c1[nH]c(=O)n([C@H]2C[C@H](O)[C@@H](CO)O2)cc1/C=C/Br [BRIVUDINE]	–	≥ 250	40 (≈ 120 µM)	–	–	–	150 (≈ 450 µM)	–	–	≥ 400	–	–	–	0.02 (≈ 0.06 µM)	–	0.6	–	–	0.35	40 (≈ 120 µM)	–
O=c1[nH]c(=O)n([C@H]2C[C@H](O)[C@@H](CO)O2)cc1C#CI	87	34	2 (≈ 5.29 µM)	0.18	0.11	0.16	7 (≈ 18.5 µM)	2.5	200	≥ 100	0.76	inactive	0.35	2 (≈ 5.29 µM)	inactive	0.063	0.3	0.58	0.12	7 (≈ 18.5 µM)	EC50 [13]: 0.78 µM; Activity [21]: inactive; Activity [22]: inactive; EC50 [24]: 0.89 µM; Activity [25]: inactive; Activity [26]: inactive; Activity [27]: inactive
C[Si](C)(C)C#Cc1cn([C@@H]2O[C@H](CO)[C@@H](O)[C@@H]2O)c(=O)[nH]c1=O	≥ 250	≥ 176	150 (≈ 441 µM)	0.48	0.33	3.8	2 (≈ 5.88 µM)	> 50	200	400	127	inactive	0.29	0.7 (≈ 2.06 µM)	inactive	0.75	≥ 250	> 50	1.9	150 (≈ 441 µM)	EC50 [33]: > 50 µM; Activity [21]: inactive; Activity [22]: inactive; EC50 [24]: > 50 µM; Activity [25]: inactive; Activity [26]: inactive; Activity [27]: inactive
Nc1ccn(C[C@@H](CO)OCP(=O)(O)O)c(=O)n1 [CIDOFOVIR]	–	–	–	–	–	–	–	0.66	–	–	121	–	–	–	–	–	–	0.66	–	–	–
C#Cc1cn([C@@H]2O[C@H](CO)[C@@H](O)[C@@H]2O)c(=O)[nH]c1=O	–	–	–	–	–	–	–	–	200	400	–	–	–	–	–	–	–	–	–	–	–
